Test results from patent publication US5369030A, “Method of inducing cellular differentiations and altering cell phenotype using ceramide analogs” (Duke University, priority 1992, dated 1994).
Like-named read-outs stand apart in the source and are kept apart here.

System: HL-60 cells
Assay: HL-60 cell growth/proliferation, cells counted with a hemocytometer
Assay type: cell-based, human
Conditions: for cell density / inhibition of cell growth (in words): Example 3C; for cell density: starting density 2×10^5 cells/ml; for inhibition of cell growth (in words): time course to 108 hours
Description: Human myelocytic leukemia HL-60 cells (20-45 passages (American Type Culture Collection, Rockville, Md., accession no. CCL 240) were obtained and grown in RPMI 1640 medium (Sigma Chemical Co., St. Louis, Mo.) containing 10% fetal calf serum at 37° C. in 5% CO2 incubator at a cell density of 2×10^5 cells/mi. The cells were washed once with phosphate buffered saline (PBS) and resuspended in serum-free media containing insulin (5 mg/liter) and transferrin (5 mg/liter) for 2-3 hours before treatment with various compounds.
HL-60 cells were treated with 3 μM of Cn-L-t-APPD with acyl chain lengths of C6, C8, C10, C12, C14, C16, and C18 (m=4, 6, 8, 10, 12, 14 and 16) in fresh ehtanol solution or with an ethanol vehicle and cell growth was determined following three days of treatment. Cell growth was quantified using a hemocytometer. Cell viability was judged by the ability to exclude trypan blue dye. Viability was always more than 80% unless otherwise described.
HL-60 cells (starting cell density of 2×10^5 cells/ml) were treated with different concentrations of C14-L-t-APPD and cells were counted following 24 and 72 hours of treatment. The results are representative of three experiments. A 1μM dose of C14-L-t-APPD had little or no effect on cell growth at 24 or 72 hours (approximately 105% and 130% of control, respectively). A 2μM dose inhibited cell growth to approximately 65% of the control at both 24 and 72 hours. […] The IC50% was approximately 2 μM (10 fmol/cell). IC50% is the concentration of test compound that causes 50% inhibition of cell growth in comparison with controls. Thus, similar to results with C2-ceramide, C14-APPD inhibited cell proliferation at different durations of treatment.
HL-60 cells (starting cell density of 2×10^5 cells/ml) were treated with 3 μM Cn-L-t-APPD derivatives with N-acyl chain lengths of C6, C8, C10, C12, C14, C16, and C18 (m=4,6,8,10, 12, 14, and 16) and cells were counted at 0, 12, 36, 60, 84 and 108 hours post treatment. The results are representative of 3 experiments.
N-acyl derivatives of 2-amino-1-(4'-nitrophenyl)-1,3-propanediol (Cn-D-t-ANPPD) were tested to determine the effects of chain length on HL-60 cell growth as described in Examples 3 A. HL-60 cells (at a starting cell density of 2×10^5 cells/ml) were treated with 3 μM of the diff analogs (C6, C8, C10, C12, C14, C16 and C18) of Cn-D-t-ANPPD, and cell growth was determined at three days. The control received no Cn-D-t-ANPPD. Treatment of HL-60 cells with C2-ceramide is included for comparison.
HL-60 cells were treated with the indicated concentrations and cell growth was determined following three days of treatment as described in Example 3B.
The suitability of phenylaminopropanediol derivatives as analogs of ceramide allowed further investigation of the structural requirements for ceramide-mediated biology. For these experiments, C14 (N-myristoyl) derivatives of different phenylaminoalcohols were synthesized and examined for their biologic activity. HL-60 cells (starting cell density of 2×10^5 cells/ml) were treated with 3 μM of C14 derivatives C14-L-t-APPD, C14-D-t-ANPPD, C14-D-e-APP-1, C14-L-e-APP-1, C14-APP-3 and C14-D-APP3. The structures of these compounds are provided in Table I. Cell growth was determined at 3 days as described in Example 3A. The results shown are averages of two determinations, and are representative of five different experiments.
and C14-L-e-APP-1 HL-60 cells were treated as described in Example 3B. growth was determined after 3 days of treatment.

[1] = Example 5, 3 μM C14 derivatives, 3 days
[2] = Homo sapiens, HL-60, 72 h, Example 4A, Table II, 3 μM Cn-D-t-ANPPD (C2-ceramide concentration not given), three days, read-out: CELL GROWTH (% OF CONTROL)
[3] = Example 3A, 3 μM Cn-L-t-APPD, three days

Structure (SMILES) | activity at 3 µM [2] | cell growth, % of control [3] | cell density (3 μM, 60 hours) | cell density (3 μM, 84 hours) | cell density (3 μM, 108 hours) | further results
CCCCCCCCCCCCCC(=O)N[C@@H](C)[C@H](O)c1ccccc1 (relative stereo) [C14-DL-e-APP-1] |  |  |  |  |  | cell growth, % of control [1]: 60%
CCCCCC(=O)N[C@H](CO)[C@H](O)c1ccc([N+](=O)[O-])cc1 [C6-D-t-ANPPD] | 70% |  |  |  |  | 
CCCCCC(=O)N[C@@H](CO)[C@@H](O)c1ccccc1 [C6-L-t-APPD] |  | 105% | 800000 mL⁻¹ | 1.4e+06 mL⁻¹ | 2.4e+06 mL⁻¹ | 
CCCCCCCC(=O)N[C@H](CO)[C@H](O)c1ccc([N+](=O)[O-])cc1 [C8-D-t-ANPPD] | 70% |  |  |  |  | 
CCCCCCCC(=O)N[C@@H](CO)[C@@H](O)c1ccccc1 [C8-L-t-APPD] |  | 104% | 800000 mL⁻¹ | 1.4e+06 mL⁻¹ | 2.4e+06 mL⁻¹ | 
CCCCCCCCCC(=O)N[C@H](CO)[C@H](O)c1ccc([N+](=O)[O-])cc1 [C10-D-t-ANPPD] | 68% |  |  |  |  | 
CCCCCCCCCC(=O)N[C@@H](CO)[C@@H](O)c1ccccc1 [C10-L-t-APPD] |  | 90% | 800000 mL⁻¹ | 1.2e+06 mL⁻¹ | 2e+06 mL⁻¹ | inhibition at 3 µM (Homo sapiens, HL-60, 72 h, Example 3A, 3 μM, three days, read-out: reduction of cell growth as compared to a control): ~10%
CCCCCCCCCCCC(=O)N[C@H](CO)[C@H](O)c1ccc([N+](=O)[O-])cc1 [C12-D-t-ANPPD] | 4% |  |  |  |  | CELL GROWTH (% OF CONTROL) (Example 4A, Table II, 3 μM Cn-D-t-ANPPD (C2-ceramide concentration not given), three days, listed as C12 chain analog): about 4 % OF CONTROL
CCCCCCCCCCCC(=O)N[C@@H](CO)[C@@H](O)c1ccccc1 [C12-L-t-APPD] |  | approximately 40% | 300000 mL⁻¹ | 300000 mL⁻¹ | 600000 mL⁻¹ | inhibition of cell growth (in words) (3 μM): able to inhibit cell growth by significant amounts
CCCCCCCCCCCCCC(=O)N[C@H](CO)[C@H](O)c1ccc([N+](=O)[O-])cc1 [C14-D-t-ANPPD] | 1% |  |  |  |  | CELL GROWTH (% OF CONTROL) (Example 4A, Table II, 3 μM Cn-D-t-ANPPD (C2-ceramide concentration not given), three days, listed as C14 chain analog): about 1 % OF CONTROL; activity at 0.1 µM (Homo sapiens, HL-60, 72 h, Example 4B, Table III, 0.1 μM, three days, read-out: CELL GROWTH (% OF CONTROL)): 110%; activity at 0.2 µM (Homo sapiens, HL-60, 72 h, Example 4B, Table III, 0.2 μM, three days, read-out: CELL GROWTH (% OF CONTROL)): 112%; activity at 0.3 µM (Homo sapiens, HL-60, 72 h, Example 4B, Table III, 0.3 μM, three days, read-out: CELL GROWTH (% OF CONTROL)): 113%; activity at 0.5 µM (Homo sapiens, HL-60, 72 h, Example 4B, Table III, 0.5 μM, three days, read-out: CELL GROWTH (% OF CONTROL)): 105%; activity at 1 µM (Homo sapiens, HL-60, 72 h, Example 4B, Table III, 1 μM, three days, read-out: CELL GROWTH (% OF CONTROL)): 85%; activity at 2 µM (Homo sapiens, HL-60, 72 h, Example 4B, Table III, 2 μM, three days, read-out: CELL GROWTH (% OF CONTROL)): 12%; activity at 3 µM (Homo sapiens, HL-60, 72 h, Example 4B, Table III, 3 μM, three days, read-out: CELL GROWTH (% OF CONTROL)): 3%; activity at 4 µM (Homo sapiens, HL-60, 72 h, Example 4B, Table III, 4 μM, three days, read-out: CELL GROWTH (% OF CONTROL)): 2%; IC50 (Homo sapiens, HL-60, 72 h, Example 4B, three days, read-out: concentration for 50% inhibition of cell growth): ~1.5 µM
CCCCCCCCCCCCCC(=O)N[C@H](C)[C@H](O)c1ccccc1 [C14-D-t-APP-1] |  |  |  |  |  | cell growth, % of control [1]: 49%
CCCCCCCCCCCCCC(=O)N[C@@H](CO)Cc1ccccc1 [C14-DAPP-3] |  |  |  |  |  | cell growth, % of control [1]: 14%
CCCCCCCCCCCCCC(=O)N[C@H](CO)Cc1ccccc1 [C14-LAPP-3] |  |  |  |  |  | cell growth, % of control [1]: 15%
CCCCCCCCCCCCCCCC(=O)N[C@H](CO)[C@H](O)c1ccc([N+](=O)[O-])cc1 [C16-D-t-ANPPD] | 5% |  |  |  |  | CELL GROWTH (% OF CONTROL) (Example 4A, Table II, 3 μM Cn-D-t-ANPPD (C2-ceramide concentration not given), three days): ~5 % OF CONTROL
CCCCCCCCCCCCCCCC(=O)N[C@@H](CO)[C@@H](O)c1ccccc1 [C16-L-t-APPD] |  | ~65% | 400000 mL⁻¹ | 700000 mL⁻¹ | 1.2e+06 mL⁻¹ | inhibition of cell growth (in words) (3 μM): able to inhibit cell growth by significant amounts
CCCCCCCCCCCCCCCCCC(=O)N[C@H](CO)[C@H](O)c1ccc([N+](=O)[O-])cc1 [C18-D-t-ANPPD] | 82% |  |  |  |  | 
CCCCCCCCCCCCCCCCCC(=O)N[C@@H](CO)[C@@H](O)c1ccccc1 [C18-L-t-APPD] |  | 116% | 800000 mL⁻¹ | 1.4e+06 mL⁻¹ | 2.3e+06 mL⁻¹ | 
